Legend:
CDC25B = target: T1, CDC25B (Homo sapiens, UniProt P30305); experiment: CDC25B enzyme assay; type: biochemical; conditions: catalytic domain of CDC25B (aa 378-566) GST fusion, 20 μm FDP, 1 hour at room temperature, fluorescence
T1 construct: Catalytic domain of CDC25B (aa 378-566) was expressed and produced in E. coli into a GST fusion protein; GST; made in house; host or cells: E. coli
T1 sequence (P30305 378-566 isoform P30305-2): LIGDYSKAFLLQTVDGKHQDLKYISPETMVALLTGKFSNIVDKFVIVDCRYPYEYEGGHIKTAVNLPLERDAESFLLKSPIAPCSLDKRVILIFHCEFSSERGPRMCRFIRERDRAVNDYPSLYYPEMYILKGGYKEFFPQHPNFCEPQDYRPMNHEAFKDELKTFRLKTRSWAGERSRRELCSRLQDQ
Description: Catalytic domain of CDC25B (aa 378-566) was expressed and produced in E. coli into a GST fusion protein, which was used as zymogen. Enzyme assay was carried out on a 96-well plate, with the final reaction volume per well adjusted to 200 μL. 170 μL of a buffer solution (30 mM Tris buffer, pH 8.5, 75 mM NaCl, 0.67 mM EDTA, 1 mM DTT), 20 μL (0.2 μg) of CDC25B enzyme and 10 μL of the test compound dissolved in DMSO were added, so that the final concentration became 1 μg/mL CDC25B and 20 μm FDP. Measurement was made after culturing at room temperature for 1 hour. FDP and DTT were added to the buffer solution just before assay, so that a fresh status could be maintained. After 1 hour of culturing, fluorescence resultant from the enzymatic reaction was measured at 485 nm (excitation) and 538 nm (emission).
The screened compound was treated to a final concentration of 1, 2, 5 and 10 μm to obtain the % inhibition value. If the inhibitory effect was low (less than 50% at […]), the concentration of the compound was increased to 20 μm and the % inhibition value and the IC50 value were obtained.

A549 = experiment: Cell cytotoxicity assay (SRB), A549; type: cell-based; conditions: Homo sapiens, A549, 10 μM, 48 hours, read-out: % of inhibition of growth of cancer cells
Description: (§1) A549, HT29 and MCF-7 were used to measure anticancer activity. The cancer cells were those distributed from the National Cancer Institute (NCI) of the U.S. and cultured by the Korea Research Institute of Chemical Technology (KRICT), which had been derived from human tumor cell lines. The cells were cultured in a 5% CO2 incubator at 37° C. with constant temperature and humidity using RPMI 1640 culture medium fortified with 5% fetal bovine serum. Subculturing was carried out once in 3-4 days. A PBS (phosphate buffered saline) solution in which 0.25% trypsin and […] trans-1,2-diaminocyclohexane-N,N,N,N-tetraacetic acid (CDTA) were dissolved was used to separate the cells.
(§2) The SRB (sulforhodamine B) assay method, which was developed in 1989 to measure in vitro anticancer activity of drugs by the NCI, was used. The cells were separated using a trypsin-CDTA solution and were plated on a 96-well microplate (Falcon), about 2×10^3 cells per each well. The cells were cultured in a CO2 incubator for 24 hours and were attached to the bottom of the plate. After removing the culture medium using an aspirator, each of Compound No. 78, Compound No. 79 and Doxorubicin, a control drug, diluted in a culture medium was added to the wells containing the cells, with a log dose of 6 equivalents, 3 times, […] at one time. The cells were cultured for 48 more hours. If required, dimethylsulfoxide (DMSO) was used to dissolve the compounds. The diluted compound solutions were filtered through a […] filter before being added to the cells. […] Then, absorbance was measured at 520 nm using a microplate reader. In order to quantify the anticancer effect of the compounds, number of cells was counted for the cases where the drug was added (Tz), the cells were cultured for 48 hours with a culture medium containing no drug (C) and the cells were cultured for 48 hours with a culture medium containing the drug (T). Anticancer activity was calculated by the following equations 1 and 2. […]

HT29 = experiment: Cell cytotoxicity assay (SRB), HT29; type: cell-based; conditions: Homo sapiens, HT-29, HT29, 10 μM, 48 hours, read-out: % of inhibition of growth of cancer cells
Description: as §1, §2

MCF-7 = experiment: Cell cytotoxicity assay (SRB), MCF-7; type: cell-based; conditions: Homo sapiens, MCF7, MCF-7, 10 μM, 48 hours, read-out: % of inhibition of growth of cancer cells
Description: as §1, §2

[1] = tested on: C33A human uterine cancer cell line
Description: In order to verify the in vivo anticancer effect of the compounds of the present invention, C33A human uterine cancer cell line was subcutaneously injected at the abdominal walls of 6- to 8-week-old male nude mice. […] For a positive control, cisplatin (4 mg/kg), which is widely used as an anticancer agent in clinical tests, was used. The dosage given was 0.25 mL per each administration once a day for a period of 7 consecutive days. The volume of the tumor was calculated by the following equation 3, by measuring the long and short axes with a caliper. Tumor volume=(Short axis,mm)^2×(Long axis,mm)×0.523 Equation 3

IC50 (CDC25B) [nM] | negative responses (reduced motion, lack of appetite) ([1]; mouse, in vivo) | SMILES | inhibition at 10 µM (A549) [%] | inhibition at 10 µM (HT29) [%] | inhibition at 10 µM (MCF-7) [%] | anticancer activity (tumor volume) ([1]; C33A tumor in male nude mice, into the abdominal cavity once a day for 7 days, FIG. 1, cisplatin 4 mg/kg positive control)
2260 | did not shows any negative responses | CCOc1ccc(-c2nn(-c3ccccc3)cc2C=C2SC(=O)N(C)C2=O)cc1Br [Compound 78, 5-[3-(3-bromo-4-ethoxy-phenyl)-1-phenyl-1H-pyrazol-4-ylmethylene]-3-methyl-thiazolidine-2,4-dione] | 67.5 | 59.7 | 67.3 | comparable to that of cisplatin
1410 | – | CCOc1ccc(-c2nn(-c3ccccc3)cc2C=C2SC(=O)N(CC)C2=O)cc1Br [Compound 79, 5-[3-(3-bromo-4-ethoxy-phenyl)-1-phenyl-1H-pyrazol-4-ylmethylene]-3-ethyl-thiazolidine-2,4-dione] | 39.1 | 82.4 | 31.1 | –
– | – | COc1cccc2c1C(=O)c1c(O)c3c(c(O)c1C2=O)C[C@@](O)(C(=O)CO)C[C@@H]3O[C@H]1C[C@H](N)[C@H](O)[C@H](C)O1 [Doxorubicin, reference compound] | 39 | 51.1 | 63.2 | –
